Results: ChEMBL document CHEMBL1201862, “PubChem BioAssay data set” (2004)
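All cell lines were grown in 96-well plates and treated with compound for 48 hours. GI50 marks 50% less growth.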 Active and inactive are the calls of the source. No stated cut-off is given here; in the data, active = GI50 up to about 1.1 µM and inactive = higher.

Columns and labels:
Experiment in all cases: NCI anticancer screen, dose series, 48 h
[1] = test system: IGROV-1
[2] = test system: HOP-62
[3] = test system: M14
[4] = test system: SW-620
[5] = test system: BT-549
[6] = test system: COLO 205
[7] = test system: CAKI-1
[8] = test system: LOX IMVI
[9] = test system: UACC-257
[10] = test system: OVCAR-5
[11] = test system: KM12
[12] = test system: UO-31
[13] = test system: Hs-578T
[14] = test system: MDA-MB-435
[15] = test system: MOLT-4
[16] = test system: A549
[17] = test system: OVCAR-3
[18] = test system: DU-145
[19] = test system: NCI-H460
[20] = test system: HCT-15
[21] = test system: NCI/ADR-RES
[22] = test system: HCT-116
[23] = test system: SNB-19
[24] = test system: SK-MEL-2
[25] = test system: SK-MEL-5
[26] = test system: SF-268
[27] = test system: CCRF-CEM
[28] = test system: EKVX
[29] = test system: OVCAR-4
[30] = test system: MCF7
[31] = test system: NCI-H522
[32] = test system: UACC-62
[33] = test system: A498
[34] = test system: OVCAR-8
[35] = test system: HCC 2998
[36] = test system: RPMI-8226
[37] = test system: SK-OV-3
[38] = test system: ACHN
[39] = test system: SF-539
[40] = test system: HL-60
[41] = test system: K562
[42] = test system: PC-3
[43] = test system: SK-MEL-28
[44] = test system: NCI-H23
[45] = test system: MDA-N
[46] = test system: Malme-3M
[47] = test system: U-251
[48] = test system: HT-29
[49] = test system: 786-0
[50] = test system: SR
[51] = test system: SF-295
[52] = test system: T47D
[53] = test system: SNB-75
[54] = test system: RXF 393
[55] = test system: HOP-92
[56] = test system: TK-10
[57] = test system: NCI-H226
[58] = test system: SN12C
[59] = test system: MDA-MB-231

Measured: GI50

Cc1cc(C)nc(NS(=O)(=O)c2ccc(Nc3nncc(=O)n3N)cc2)n1
14.5 µM: [20]
inactive: [1] 15.1 µM | [2] 18.7 µM | [3] 34.8 µM | [4] 16.2 µM | [5] 18.4 µM | [6] 35.4 µM | [7] 16 µM | [8] 14.2 µM | [9] 19.8 µM | [10] 18.2 µM | [11] 36.2 µM | [12] 19.3 µM | [13] 29.6 µM | [14] 18.6 µM | [15] 15.5 µM | [16] 34.8 µM | [17] 16.3 µM | [18] 34.3 µM | [19] 30.1 µM | [21] 23.6 µM | [22] 28.2 µM | [23] 30.6 µM | [24] 59 µM | [25] 17 µM | [26] 20.1 µM | [27] 3.62 µM | [28] 23.1 µM | [29] 18.1 µM | [30] 16.7 µM | [31] 12.8 µM | [32] 19.8 µM | [33] 45.9 µM | [34] 15.4 µM | [35] 30.5 µM | [36] 9.44 µM | [37] 55.7 µM | [38] 33.7 µM | [39] 31.6 µM | [40] 17.4 µM | [41] 11.1 µM | [42] 21.5 µM | [43] 26.5 µM | [44] 14.4 µM | [45] 16 µM | [46] 19.2 µM | [47] 17.7 µM | [48] 16.9 µM | [49] 15.8 µM | [50] 16.8 µM | [51] 31.6 µM | [52] 16.3 µM

C(=N\C12CC3CC(CC(C3)C1)C2)/C1CCCCC1
inactive: [1] > 100 µM | [2] > 100 µM | [53] > 100 µM | [3] > 100 µM | [4] > 100 µM | [54] > 100 µM | [5] > 100 µM | [6] > 100 µM | [7] > 100 µM | [9] > 100 µM | [10] > 100 µM | [11] > 100 µM | [12] > 100 µM | [13] > 100 µM | [14] > 100 µM | [15] > 100 µM | [16] > 100 µM | [17] > 100 µM | [18] > 100 µM | [19] > 100 µM | [21] > 100 µM | [22] > 100 µM | [23] > 100 µM | [24] > 100 µM | [55] > 100 µM | [25] > 100 µM | [26] > 100 µM | [27] > 100 µM | [28] > 100 µM | [56] > 100 µM | [29] > 100 µM | [30] > 100 µM | [31] > 100 µM | [32] > 100 µM | [33] > 100 µM | [57] > 100 µM | [34] > 100 µM | [35] > 100 µM | [36] > 100 µM | [38] > 100 µM | [39] > 100 µM | [40] > 100 µM | [41] > 100 µM | [42] > 100 µM | [44] > 100 µM | [45] > 100 µM | [46] > 100 µM | [47] > 100 µM | [48] > 100 µM | [58] > 100 µM | [49] > 100 µM | [50] > 100 µM | [51] > 100 µM | [59] > 100 µM
> 100 µM: [20]
